Data from patent US8962530B2, “Inflammatory bowel disease therapies” (Regents of the University of Colorado, priority 2007, dated 2015).

What was measured:
[1] = tested on: TNBS-induced colitis; assay: Intestinal permeability, FITC-labeled-dextran method, TNBS-colitis model; format: in vivo; conditions: TNBS-colitis mice; 60 mg/kg i.p.; FITC-dextran gavage after 20 hours, serum four hours later; compared to vehicle control
Text: The effectiveness of compounds and methods of the present invention on intestinal barrier protection and treatment of inflammatory bowel disease (IBD) in TNBS (2,4,6-trinitrobenzene sulfonic acid)-induced colitis, an established animal model of inflammatory bowel disease, was examined. TNBS-induced colitis was induced in mice using a modification of techniques previously described. (See Morris et al (1989) Gastroenterology 96:795-803; Boirivant et al (1998) J Exp Med 188:1929-1939; Karhausen et al (2004) J Clin Invest 114:1098-1106.) Mice were shaved on the abdomen (causing total depletion of hair and microlesions) and were then sensitized to subsequent treatment by epicutaneous application of 1% TNBS (Sigma-Aldrich) in 100% ethanol on day minus 7. Seven days later, on day 0, animals were sedated with a 2.5% Tribromoethanol solution in phosphate-buffered saline (14 μl/g body weight), followed by intrarectal administration of a 2.5% TNBS solution in 50% ethanol (5 μl/g body weight). Administration of the 2.5% TNBS solution was carried out using an epidural catheter ([…] Plus Epidural Catheter, Arrow International), which was inserted approximately 6 cm ab ano followed by release of the TNBS solution. […] Four hours later, changes in intestinal permeability were determined by measurement of serum FITC-dextran levels.

[2] = tested on: TNBS-induced colitis; assay: Weight loss in TNBS-colitis model; format: in vivo; conditions: TNBS-colitis mice; for initial body weight loss: compared to vehicle-control treated TNBS-colitis animals; for average body weight (of initial body weight) at day 3: vehicle-treated approximately 92%
Text: The effectiveness of compounds and methods of the present invention on intestinal barrier protection and treatment of inflammatory bowel disease (IBD) in TNBS (2,4,6-trinitrobenzene sulfonic acid)-induced colitis, an established animal model of inflammatory bowel disease, was examined. TNBS-induced colitis was induced in mice using a modification of techniques previously described. (See Morris et al (1989) Gastroenterology 96:795-803; Boirivant et al (1998) J Exp Med 188:1929-1939; Karhausen et al (2004) J Clin Invest 114:1098-1106.) Mice were shaved on the abdomen (causing total depletion of hair and microlesions) and were then sensitized to subsequent treatment by epicutaneous application of 1% TNBS (Sigma-Aldrich) in 100% ethanol on day minus 7. Seven days later, on day 0, animals were sedated with a 2.5% Tribromoethanol solution in phosphate-buffered saline (14 μl/g body weight), followed by intrarectal administration of a 2.5% TNBS solution in 50% ethanol (5 μl/g body weight). Administration of the 2.5% TNBS solution was carried out using an epidural catheter ([…] Plus Epidural Catheter, Arrow International), which was inserted approximately 6 cm ab ano followed by release of the TNBS solution. To ensure the continuance of the TNBS solution in the colon, mice were suspended in a vertical position for at least 5 minutes following administration. Vehicle control animals received a corresponding volume of 50% ethanol solution alone. Unless otherwise indicated, compounds of the invention were administered to animals intraperitoneally (i.p.) as a solution. Animals were dosed with compound (40 mg/kg/day or 20 mg/kg/day) on day minus 1, day 0, and day 1, or exclusively on day 0 and day 1, by i.p. injection. On day 0, TNBS treatment was performed on animals 4 hours after injection of compound. The effect of methods and compounds of the present invention on weight loss associated with inflammatory bowel disease was studied using an established animal model of colitis (described above in Example 1). Monitoring weight loss is a reliable method to assess TNBS-colitis severity in this animal model, as previously described. (See Neurath et al (2000) Int Rev Immunol 19:51-62.) Animals were administered Compound A (20 mg/kg or 40 mg/kg, i.p.) or vehicle control on day minus 1, day 0, and day 1. TNBS-colitis was induced in mice on day 0, as described above in Example 1. Body weight of the mice was monitored following induction of TNBS-colitis. […] Animal body weight was monitored each day for 3 days.

[3] = 20 mg/kg i.p. on day minus 1, day 0, day 1
[4] = 40 mg/kg i.p. on day minus 1, day 0, day 1

O=C(O)CNC(=O)c1ncc2cc(Sc3ccccc3)ccc2c1O [Compound A, [(4-Hydroxy-7-phenylsulfanyl-isoquinoline-3-carbonyl)-amino]-acetic acid]
serum FITC-dextran levels (intestinal permeability) [1]: lower levels of serum FITC-dextran | initial body weight loss [2, 3]: reduction in the extent of initial body weight loss | average body weight (of initial body weight) at day 3 [2, 3]: approximately 95% | body weight gain (recovery from weight loss) by day 3 ([2]; 20 mg/kg or 40 mg/kg i.p. on day minus 1, day 0, day 1, compared to vehicle/control-treated TNBS-colitis animals): greater increase in body weight gain | initial body weight loss [2, 4]: reduction in the extent of initial body weight loss | average body weight (of initial body weight) at day 3 [2, 4]: ~97%
